The record followed here is patent US20060293351A1, “Promotion of wound healing” (priority 1999, published 2006).

Where two headings read alike, the source gives them in different places.

The test system of one data set is collagen α1(I) gene. In words: Collagen α1(I) gene expression at the stricture site (in situ hybridization, image analysis). Format: in vivo, rats. The note with it: after coagulation treatment, 3 biopsies for each type of treatment. As to the method: The experiments were performed as follows. First, urethral catherization was performed on tile rats with a 23 G Quik-Cath (Baxter, Ireland) sheath. A spinal needle was inserted into the sheath, and was used to apply a coagulation current at a level of 10 W to the outer end of the needle for 1 second at three locations, 8, 10 and 12 mm from the meatus, in order to produce urethral strictures. Halofuginone was given for 7 days starting at the day of stricture formation, either orally at concentrations of 1 ppm and 5 ppm in the diet, or by injection of 0.03% Halofuginone dissolved in 2% lignocaine directly into the urethra once a day. After 21 days, the rats were sacrificed and the sutures were reopened to determine the level of urethral stricture formation, at which time biopsies of the tissue were taken. For hybridization with the genetic probe, the sections were deparafinized in xylene, rehydrated through a graded series of ethanol solutions, rinsed in distilled water for 5 minutes and then incubated in 2×SSC at 70° C. for 30 minutes. The sections were then rinsed in distilled water and treated with pronase, 0.125 mg/ml in 50 mM Tris-HCl, 5 mM EDTA, pH 7.5, for 10 minutes. Alter digestion, the slides were rinsed with distilled water, post-fixed in 10% formalin in PBS and blocked in 0.2% glycine. […] Alkaline phosphatase activity was detected in the sections as previously described [Knopov. […]

The subject of data set [1] is incision at tumor implantation site. In words: Wound healing in nude mice implanted with C6 rat glioma tumors. The class given is in vivo, CD1-nude mice. The procedure:
Tumors from C6 rat glioma cells were prepared and implanted in nude mice. Certain mice received Halofuginone, either orally or through i.p. (intra-peritoneal) administration. […] The experimental method was as follows. C6 rat glioma cells were cultured in DMEM supplemented with 5% FCS, 50 units/ml penicillin, 50 micrograms/ml streptomycin and 125 […]. Aggregation of cells into small spheroids of about 150 microns was initiated by replating cells from confluent cultures onto agar-coated bacteriological plates. After 4-5 days in culture, the suspension was transferred to a 250 ml spinner flask (Bellco, USA), and the medium was changed every other da for 30-40 days. All culture operations were performed at 37° C. and 5% CO2. Other conditions were as previously reported (Abramovitch et al., Br. J. Cancer, 77:440-447, 1998; Abramovitch et al., Cancer Res., 55:1956-62, 1995). For the implantation of the cells, male CD1-nude mice, two months old and 30 g body weight, were anesthetized. A single tumor, about 1 mm in diameter, was implanted in each mouse stubcutaneously in the lower back at the site of a 4 mm incision, using a Teflon tubing, as reposed previously (Abramovitch et al., Br. J. Cancer, 77:440-447, 1998). The incision was formed with fine surgical scissors and closed with an adhesive bandage. The mice were then divided into six groups. One group received Halofuginone by oral administration as previously described. Four groups received different concentrations of Halofuginone through i.p. injections every other day (0.1, 0.5, 2 and 4 micrograms of Halofuginone per injection). One group received sham injections (no Halofuginone). MRI microimaging of the implanted tumor was performed on a horizontal 4.7 T Bruker-Biospec spectrometer using an actively RF decoupled surface coil, 2 cm in diameter, and a bird-cage transmission coil, as reported previously (Abramovitch et al., Br. J. Cancer, 77:440-447, 1998; and Abramovitch et al., Magn. Reson. Med., 39:813-824, 1998). Mice were anesthetized and placed supine with the tumor located at the center of the surface coil. Gradient echo images were acquired with a slice thickness of 0.5 mm, TE of 10 ms, TR of 230 ms and 256×256 pixels matrix resulting in in-plane resolution of 110 microns. Growth of the capillary bed was reflected by reduction of the mean intensity at a region of interest of 1 mm surrounding the tumor (Abramovitch et al., Br. J. Cancer, 77:440-447, 1998; and Abramovitch et al., Magn. Reson. Med., 39:813-824, 1998). At the end of the experimental period, the mice were sacrificed, and sections were obtained and prepared as previously described above. […] Such a result is surprising since wounds located less than 1 mm from a tumor implantation site have been previously shown not to heal rapidly.

In another data set the test system is urethral strictures. Format: in vivo, rats. The text has this:
Tile effect of Halofuginone in post-trauma stricture formation in rats was studied. Briefly, urethral strictures were induced by catheterization and application of an electrical current to the urethra of rats. The rats were divided into four groups: untreated rats as controls (FIG. 5A); rats treated with Halofuginone but not with coagulation current (FIG. 5B); rats treated with coagulation current alone (FIG. 5C); and rats treated with both Halofuginone and coagulation current (FIG. 5D-5F).
The experiments were performed as follows. First, urethral catherization was performed on anesthetized rats with a 23 G Quik-Cath (Baxter, Ireland) sheath. A spinal needle was inserted into the sheath, and was used to apply a coagulation current at a level of 10 W to the outer end of the needle for 1 second at three locations, 8, 10 and 12 mm from the meatus, in order to produce urethral strictures. Halofuginone was given for 7 days starting at the day of stricture formation, either orally at concentrations of 1 ppm and 5 ppm in the diet, or by injection of 0.03% Halofuginone dissolved in 2% lignocaine directly into the urethra once a day. Urethral gross morphology was evaluated by urethrogram after injecting contrast material (Telebrix Megalumine 300 mg/ml. Laboratorie, Guerbet, Aulnay Sous Bios, France) into the anesthetized rat through a 23 G Quik-Cath sheath, under fluoroscopy 3 weeks after stricture formation.

Setting [2] is: orally or 4 micrograms per i.p. injection.
Setting [3] is: particularly at the highest dose (4 micrograms per i.p. injection).

Regarding `O=C(CC1NCCC[C@H]1O)Cn1cnc2cc(Br)c(Cl)cc2c1=O` (stereo partly drawn) [Halofuginone], in the data set with collagen α1(I) gene, the “reduction in the expression of the collagen α1(I) gene” value stood at 5.3 fold. Further, the “complete re-epitheliazation (mice per group)” value in data set [1] (4 micrograms per i.p. injection every other day) and in data set [1] (administered orally) was 4 out of 5 each time. The “re-epitheliazation (mice per group)” value in data set [1] (all other groups (0.1, 0.5, 2 micrograms per i.p. injection; sham)) is 1 out of 5. Moreover, the “scarring at the site of the wound” value in data set [1] (setting [2]) is given as “no scarring”. For the same compound, the “wound healing despite presence of tumor” value in data set [1] (setting [2]) is “significantly improved wound healing”. Moreover, in data set [1] (setting [3]), the collagen content entry is “decreased”. Further, the “expression of the collagen α1(I) gene” value in data set [1] (setting [3]) was “decreased”. In addition, the stricture formation result was “did not affect stricture formation” with urethral strictures (1 ppm in the diet for 7 days with coagulation treatment); “did not have strictures” in the data set on urethral strictures (5 ppm in the diet for 7 days with coagulation treatment); “did not have strictures” with urethral strictures (locally administered (0.03% in 2% lignocaine into the urethra once a day, 7 days) with coagulation treatment); “did not have any strictures” with urethral strictures (rat, in vivo).
